The subject of data set [1] is L 1210 tumor cells. Put plainly: Proliferation experiment (MTT, 72 hours). The note with it: Mus musculus, L1210, L 1210, 72 hours, 4 experiments, deviation less than 15%. Type of data set: cell-based. The protocol:
L 1210 tumor cells at the exponential growth phase (5×10^3 cells/ml, Roswell Park Memorial Institute (RPMI) medium) were incubated in a microtiter plate with […] for a period of 72 hours at 37° C., 5% of CO2 and 95% relative atmospheric humidity and various concentrations of the test substances. After 65 hours, 50 μl of [3-(4,5-dimethylthiazol-2-yl)-2,5-diphenyltetrazolium bromide](MTT) (2.5 mg/ml of MTT in phosphate buffer saline (PBS)) were added. The MTT was reduced by living cells into the red, water-insoluble dyestuff formazan. After a further 7 hours, the supernatant medium was carefully removed. Formazan was dissolved by adding 100 μl of dimethyl sulfoxide per recess and subsequent shaking gently. The extinction of each recess was determined using a Multisan 340 CC photometer (Messrs. Flow) at 492 nm. The results were determined from the extinction ratio of cells with test substance to cells without test substance.
(§1) In all cases, the experiments were carried out 4 times. The deviation in the results was less than 15%.

In data set [2] the test system is L 1210 leukemia cells. Put plainly: Soft-agar assay, continuous incubation (Hamburger and Salmon). Type of data set: cell-based. The note with it: Mus musculus, L1210; L 1210, continuous incubation 5 to 7 days; 4 experiments, deviation less than 15%. The protocol: (§2) The experiment was carried out in accordance with the process of Hamburger and Salmon [New Engl. J. Med. 298, 1321-1327 (1978)]. The medium was replaced by McCoy 5A, and the number of cells was reduced to 5×10^2 cells/plate.
A continuous incubation of the cells with various concentrations of the test substance from Examples 4 and 5 was carried out. The compounds to be tested were applied to the agar plates before plating-out the cell cultures. The cell cultures then grew for 5 to 7 days in the incubator in an atmosphere of 5% of CO2, 20% of O2 and 95% relative atmospheric humidity at 37° C. After this time, the number of cell colonies having a diameter from 60 μm was determined (in %) relative to the number of cell colonies which had grown in comparison without test substance.
(§3) The IC50 value for continuous and 1-hour incubation was determined from the dose/action curve.
as §1

In data set [3] the test system is L 1210 leukemia cells. Put plainly: Soft-agar assay, 1-hour incubation (Hamburger and Salmon). The note with it: Mus musculus, L1210; L 1210, 1-hour incubation; 4 experiments, deviation less than 15%. In kind it is cell-based. The protocol:
as §2
In the test, the cells were incubated at 37° C. for 1 hour at various concentrations of the test substance. The cells were then washed twice with McCoy 5A solution (Flow catalog, Meckenheim, FRG) and subsequently applied to agar plates in accordance with the method of Hamburger and Salmon. The cells were subsequently cultivated as described above, and the number of cell colonies was determined (evaluation as in a).
as §3, §1

The test system of data set [4] is Gram-positive and Gram-negative bacteria. The data set can be described thus: plate-agar diffusion test in vitro. Type of data set: cell-based. The note with it: 10 μl/test circle, 6 mm diameter. (In general: Agar diffusion results depend on both activity and mobility in agar.)
The test system of data set [5] is human and animal tumor cells. Put plainly: tumor-inhibiting action in vitro. Type of data set: cell-based.
Data set [6] in a line: solubility. In kind it is physicochemical.
Data set [7] can be described thus: stability in the solid state and as a solution. Type of data set: physicochemical. The note with it: pH range from 3 to 9, in particular from 5 to 8.

≈ marks a conversion by molar mass, not a printed value. Where only a bound is given, the exact number is not on record here.

By IC50 is commonly meant the concentration needed to halve the response being measured. High values mean lower potency, low ones higher potency.

As to `CC(=O)Oc1c(C2CC(OC3CCC(OC(C)=O)C(C)O3)C(OC(C)=O)C(C)O2)ccc2c1C(=O)C1=C(C2=O)C2(OC3CCC(OC(C)=O)C(C)O3)C(=O)CC(C)(O)CC2(O)C=C1` (stereo not shown) [5',4A,4C,8-Tetra-O-acetyl-urdamycin G, 5',4A,4C,8-tetra-O-acetyl urdamycin G], the IC50 was < 1 µg/mL in data set [1], 0.036 µg/mL (≈ 0.0408 µM) in data set [2] and 0.065 µg/mL (≈ 0.0736 µM) in data set [3].

With `CC1OC(OC2CC(c3ccc4c(c3O)C(=O)C3=C(C4=O)C4(OC5CCC(O)C(C)O5)C(=O)CC(C)(O)CC4(O)C=C3)OC(C)C2O)CCC1O` (stereo not shown) [Urdamycin G], the IC50 in data set [1] was determined as 3.5 µg/mL (≈ 4.9 µM); in data set [2], 0.85 µg/mL (≈ 1.19 µM). The antibacterial action result in data set [4] was “comes into effect both against Gram-positive and Gram-negative bacteria”. In data set [5], the tumor-inhibiting action result is given as “tumor-inhibiting action”. Also, the solubility result in data set [6] (methanol, acetone, DMSO, dioxane and chloroform) was “readily soluble”; in data set [6] (water and alkanes) it was “not in water and alkanes”. The stability entry in data set [7] is “stable”.
